Here are results for one molecule from US20090130035A1, “STABILIZED PREPARATIONS COMPRISING PHENOLIC COMPOUNDS AND BENZOPHENONES” (SYMRISE GmbH & Co. KG, priority 2006, published 2009).

Molecules are shown by their SMILES.

Common to all, as to format: physicochemical
Data set [1] is described as follows: pH series with disodium EDTA: aqueous-ethanolic solutions stored in the dark for 28 days, chromametric b* values. The conditions noted are these: after 28 days. From the text: The amount of 4-(1-phenylethyl)-1,3-dihydroxybenzene (CARN: 85-27-8; formula (IA)) was again in each case 0.5 percent by weight. The samples were likewise stored in the dark at room temperature for 28 days.

The nature of data set [2]: Irradiation (24 h UV test, Ultra-Vitalux W300) of oil phase solutions, chromametric b* values. The conditions noted are these: for b* value: after irradiation. The method, then:
In order to examine to what extent the stability of the compound of the formula (IA) can be increased by predissolution in an oil phase to which an oil-soluble photoprotective filter of the formula (II) is added, irradiation experiments were conducted. The oil phase used was 2-ethylhexyl isononanoate (INCI: Ethylhexyl isononanoate). The amount of 4-(1-phenylethyl)-1,3-dihydroxybenzene (formula (IA) was in this case in a range from 10% to 20% by weight, based on the amount of oil phase. The amount of the photoprotective filter added for colour stabilization, 2-hydroxy-4-methoxybenzophenone (INCI: Benzophenone-3, formula (IIC)), was in each case 1% by weight. In order to examine to what extent the addition of a photoprotective filter of the formula (II) is advantageous, all of the samples were irradiated for 24 hours with light (light source: Ultra-Vitalux W300). For the measurement of any colour changes that occurred, all of the samples were subjected to chromametry both before and after irradiation to determine the b* values, which represent a measure of the shift in the blue-yellow axis and so give a direct indication of a yellow discoloration occurring.

Data set [3] is described as follows: pH series: aqueous-ethanolic solutions stored in the dark for 28 days, chromametric b* values. The conditions noted are these: after 28 days, without disodium EDTA. The procedure: In order to examine to what extent the degradation and the associated yellow to brown discoloration of 4-(1-phenylethyl)-1,3-dihydroxybenzene (CARN: 85-27-8; formula (IA)) in cosmetic and pharmaceutical formulations is also influenced by the pH value of the preparation, serial pH experiments were conducted, by dissolving 4-(1-phenylethyl)-1,3-dihydroxybenzene (CARN: 85-27-8; formula (IA)) in aqueous/ethanolic solutions which had been adjusted to different pH values (pH 4, 5, 7 and 9, Table 2) using buffer solutions. The amount of 4-(1-phenylethyl)-1,3-dihydroxybenzene (CARN: 85-27-8; formula (IA)) was in each case 0.5 percent by weight. All of the samples were stored in the dark for 28 days at room temperature. In order to measure any colour changes occurring, all samples were subjected to chromametric determination, both at the beginning of the experiment and at the end of a storage time of 28 days, of the b* values, which represent a measure of the shift in the blue-yellow axis and therefore give a direct indication of any yellow discoloration occurring.

For the molecule `CC(c1ccccc1)c1ccc(O)cc1O` (stereo not shown) [4-(1-phenylethyl)-1,3-dihydroxybenzene], the “b* value” in data set [1] (pH 4, 0.5% solution) was 1.5; in data set [1] (pH 5, 0.5% solution) it was 3.6; in data set [1] (pH 7, 0.5% solution), 14.8; in data set [1] (pH 9, 0.5% solution), 40.2; in data set [2] (reference specimen not stabilized with benzophenone-3), 34.0; in data set [2] (solution with 10 percent by weight, plus 1 percent benzophenone-3) it was 10.3. For the same molecule, the “b* value” in data set [2] (solution with 15 percent by weight, plus 1 percent benzophenone-3) is 15.5; in data set [2] (solution with 20 percent by weight, plus 1 percent benzophenone-3) it was 10.6; in data set [3] (pH 4, 0.5% solution), 2.0; in data set [3] (pH 5, 0.5% solution), 4.6; in data set [3] (pH 7, 0.5% solution), 19.4; in data set [3] (pH 9, 0.5% solution), 55.3. For the same molecule, the “stability of solutions on irradiation with light” value in data set [2] (light source Ultra-Vitalux W300, yellowish to brownish discoloration) is given as “a certain instability”.
